This note sets out measurements from patent US9061012B2, “Uses of DGAT1 inhibitors” (Novartis AG, priority 2010, dated 2015).

For one data set, the system named is STZ rats. The data set is described as follows: Plasma triglycerides after Intralipid in a model of severe hypertriglyceridemia (STZ, high fat diet). The following applies: for Plasma TG at 2 hrs / Plasma TG at 4 hrs: 10 mpk oral gavage 30 min before Intralipid 10 ml/kg; for Plasma TG at 2 hrs: 2 hrs post-Intralipid; for Plasma TG at 2 hrs / Plasma TG at 4 hrs / Pre-dose TG: mean ± SEM; for Plasma TG at 4 hrs / Plasma TGs at 4 hrs compared between groups: 4 hrs post-Intralipid; for Pre-dose TG: baseline immediately before dosing, 6 h fasted, group later given 10 mpk oral, n=10/group. It is filed as in vivo, rat (male Sprague Dawley). The protocol: Male Sprague Dawley (SD) rats at 12 wks of age were studied. Orlistat (04139-100MG) and Streptozotocin (S0130-1G) were purchased from Sigma (St. Louis, Mo.).
Compounds were suspended in vehicle (0.5% methyl cellulose with 0.1% Tween-80) to achieve a dosing volume of 4 ml/kg and dosing concentration of 10 mpk for both compound 1 and orlistat (Sigma, St. Louis, Mo.).
Two weeks into consuming a 60% high fat diet, animals were treated with a 40 mpk dose of streptozotocin (STZ given intravenously (iv) in 10 mM sodium citrate in normal saline, pH=4.5). Nine days later, animals were assigned to three experimental groups (vehicle, compound 1 at 10 mpk, or orlistat at 10 mpk) on the basis of 6 hr fasted TG concentrations (n=10/group). On the morning of the study, 14 days after animals were placed in experimental groups, animals were fasted for 6 hours, after which studies commenced at 1100 hr with baseline blood collected by tail nick into ethylenediaminetetraacetic acid-lined tubes (Sarstedt, Nümbrecht, Germany).
The baseline blood sample (80 μl) was collected immediately prior to administering compounds. Rats were orally gavaged with drug or vehicle (4 ml/kg) beginning at 1100 hrs. Thirty minutes later, Intralipid was orally gavaged at 10 ml/kg to all rats, representing t=0 hr. At 2 and 4 hrs post-Intralipid, tail nick blood samples were taken to assess plasma TGs.
Blood samples remained on ice following collection for no longer than 30 min prior to centrifugation (10 min, 4° C., 1000 g) and resulting plasma was aliquoted for plasma TG analysis.
Plasma TGs (triglycerides) (corrected for glycerol) were compared on an absolute basis, as a percent change from baseline (% TGs), and as area above baseline over 0-4 hours (AABtg0-4-h) using the Trapezoidal rule. Percent change from baseline was calculated as follows: % change from baseline=([TGs] at 2 or 4 hrs)−([TGs] at baseline)*100 [TGs] at baseline Statistical Analyses
Data are reported as means±SEM. One-way ANOVA (analysis of variance) assessed between-group differences when any comparisons that were not time-dependent were made (body weight, pre-study plasma TGs, AABtg0-4-h). To assess that the Intralipid bolus produced a significant increase in plasma TGs in the vehicle group, a repeated measures (RM) one-way ANOVA was used with Tukey's posthoc test applied to compare plasma parameter means at 2 and 4 hrs vs. pre-treatment concentrations. RM two-way ANOVA was used to assess the significance of the treatment-by-time interaction for plasma parameters (TGs and % TGs) followed by Bonferroni's t-test to compare differences among the groups. Outliers were determined using the Grubb's Test for Outliers. Significance was set at P≦0.05.

The next data set relates to Triton rat. The data set is described as follows: Plasma triglycerides after Intralipid and Triton WR-1339 in a model of impaired triglyceride clearance. To be noted: for Plasma TG at 90 min: 90 min after Triton WR-1339 100 mg/kg i.v.; for Plasma TG at 90 min / Plasma TG at 120 min / Pre-Triton TG: compound 1 at 10 mg/kg by gavage, mean ± SEM; for Plasma TG at 120 min: 120 min after Triton WR-1339 100 mg/kg i.v.; for Pre-Triton TG: before Triton WR-1339, Intralipid 10 mL/kg 30 min later. The class given is in vivo, rat (male Sprague Dawley). The protocol:
Male Sprague Dawley rats were studied at 9 and 10 weeks of age and were overnight fasted the night prior to study. The compound treated groups received a suspension of compound 1 at 10 mg/kg administered in 0.5% methyl cellulose with 0.1% Tween-80 at […]. Vehicle treated groups were dosed in a volume-matched manner with 0.5% methyl cellulose with 0.1% Tween-80. Vehicle and compounds were made up in a single batch the day before the start of each study. Orlistat was administered as a suspension in 0.5% methyl cellulose with 0.1% Tween-80 at 4 mL/kg. Intralipid was used as a high fat meal. Triton WR-1339 (10% weight: weight) was dissolved in normal saline and dosed at 100 mg/kg (i.v.) at a volume of 1 mL/kg. A baseline blood sample was collected by tail nick into ethylenediaminetetraacetic acid-lined tubes (Sarstedt, Nümbrecht, Germany) immediately prior to administering compounds (between 0830 and 0900 hrs). Rats were gavaged with drug or vehicle (4 mL/kg) beginning at 0830 hrs. Thirty minutes later, Intralipid was gavaged at 10 mL/kg to all rats, representing t=−30 min. Again, thirty minutes later, representing time=0 min, all rats were dosed via tail vein with Triton WR-1339 (100 mg/kg and 1 mL/kg) in normal saline. Blood samples were taken at −30 minutes (immediately prior to Intralipid/water dosing), −15 minutes, 0 minutes (immediately prior to Triton WR-1339 administration), as well as at 30, 60, 90, 120, and 240 minutes following administration of Triton WR-1339. Blood samples remained on ice following collection for no longer than 30 min prior to centrifugation. Following centrifugation (10 min, 4° C., 1000×g), plasma was aliquoted for plasma TG analysis. Data are reported as means±SEM. Repeated measures two-way ANOVA was used to assess the significance of the treatment by time interaction in plasma TGs followed by Tukey's post-hoc test to compare differences among the groups. Significance was set at P<0.05 and represented as asterisks in FIG. 3.

The subject of another data set is FCS (Type I) patients. In words: Open-label clinical study, fasting and postprandial (MTT) triglycerides in FCS patients. It is filed as in vivo, human. The method, then:
(§1) An open-label, multiple-dose, parallel group clinical study is carried out to assess the safety, tolerability, pharmacokinetics and pharmacodynamics of compound 1 in twelve patients with chylomicronemia (six with FCS and six with Type V).
(§2) The safety and tolerability of multiple doses of Compound 1 in patients with chylomicronemia (both FCS and Type V), and the effect of oral Compound 1 on fasting and postprandial plasma triglycerides in the study population are determined using the following method.
(§3) The clinical study is an open-label, out-patient parallel group study to assess the safety, tolerability, pharmacokinetics and pharmacodynamics of Compound 1 administered once daily for 21 days in patients with chylomicronemia (both FCS and Type V). Six patients of each phenotype are enrolled and treated with Compound 1 at 20 mg per day for 21 days. Following a screening period of up to 90 days, eligible patients undergo a 7-day baseline period, a 21-day treatment period, a 14-day follow-up period after last treatment day and a study completion evaluation.
(§4) The enrolling criteria for Type V patients is a screening baseline of greater than or equal to 1000 mg/dL fasting triglycerides (TG), and a documented history of heterozygous lipoprotein lipase deficiency. The enrolling criteria for familial chylomicronemia syndrome (FCS) patients is a screening baseline of greater than or equal to 1000 mg/dL fasting triglycerides, and a documented history of homozygous lipoprotein lipase deficiency.
(§5) Patients are seen at a screening visit, and, if found to meet enrollment criteria, are enrolled in the study. At this time they are given instructions to adhere to a very low fat diet (<15 g/day) during the duration of the study, as is the standard of care for this population. Patients are also provided with three days' worth of standardized very low fat meals that are consumed for the three days prior to baseline evaluation (Day—4, Day—3, & Day—2)
(§6) Patients arrive at the study site on Day—1 early morning after an overnight fast for a meal tolerance test (MTT) to evaluate baseline postprandial triglyceride (TG) response. The MTT is a liquid meal of approximately 700 kcal, being 13% fat, 65% carbohydrates and 22% protein. Before the MTT, and at hourly time points through 9 hours, blood samples are taken for triglyceride and other metabolic measurements. Patients are discharged after completing this assessment and return to the study site next morning (Day 1) for a blood collection approximately 24 hours post meal, before the first dose of the study drug (Compound 1 tablets) is administered.
(§7) On the morning of Day 1, patients receive the first dose of Compound 1 at the clinic site. The drug supply for remainder of the 21-day treatment period is provided to the patients, who are instructed to take the drug orally once daily approximately one hour before breakfast for 21 days. Patients are also instructed to continue adherance to a very low fat diet. Patients are then released to home.
(§8) Patients report to the study site once weekly during the treatment period for safety and pharmacokinetics assessment, drug accountability and reviewing the meal plan and food diary. Additionally, the site staff contacts patients by phone, at least once between the clinic visits to check patients' wellbeing and monitor compliance with drug administration and low-fat meals instructions.
(§9) Patients are given pre-prepared very low-fat meals again that are consumed on Day 18, 19 & 20. Patients return to the study site on Day 21 early morning after an overnight fast for a second test meal (MTT) and frequent blood samples collection to evaluate postprandial TG response. Following the MTT and associated Day 21 assessments, patients are discharged to home. They return on the morning of Day 22 for a 24 h blood sample for triglycerides.

A further data set deals with Type V patients. The data set is described as follows: Open-label clinical study, fasting and postprandial (MTT) triglycerides in Type V patients. It is filed as in vivo, human. The method, then:
as §1, §2, §3, §4, §5, §6, §7, §8, §9

In data set [1] the test system is patients with chylomicronemia (both FCS and Type V). In words: Open-label clinical study, safety and tolerability and overall triglyceride effect in patients with chylomicronemia (FCS and Type V). It is filed as in vivo. The method, then:
as §1, §2, §3
The enrolling criteria for Type V patients is a screening baseline of greater than or equal to 1000 mg/dL fasting triglycerides (TG), and a documented history of heterozygous lipoprotein lipase deficiency. […]

The mark [2] stands for this setting: Type I (FCS) patients, n = 6, 20 mg per day oral for 21 days, MTT.
Where [3] appears, read: Type I (FCS) patients, n = 6, MTT before treatment.
[4] abbreviates: n = 6, 20 mg per day oral for 21 days, MTT.

Turning to `O=C([O-])C[C@H]1CC[C@H](c2ccc(-c3ccc(Nc4ccc(C(F)(F)F)nc4)cn3)cc2)CC1.[Na+]` [Compound 1, trans-4-[4-[5-[[6-(trifluoromethyl)-3-pyridinyl]amino]-2-pyridinyl]phenyl]cyclohexane acetic acid, sodium salt], in the data set on STZ rats, the “Plasma TG at 2 hrs” value is recorded as 494.5 ± 54.2 mg/dL, the “Plasma TG at 4 hrs” value came out at 461.5 ± 52.5 mg/dL and the “Pre-dose TG” value came out at 346.1 ± 49.6 mg/dL. In the data set on STZ rats (10 mpk oral), the “Plasma TGs at 4 hrs compared between groups” value is reported as “did not differ”. For the same compound, the “Plasma TGs at 2 hrs compared to vehicle and orlistat groups” value in the data set with STZ rats (10 mpk oral, P≦0.001) is listed as “significantly lower”. Further, the “Blunting an increase in plasma triglycerides” value in the data set on STZ rats (model of severe hypertriglyceridemia) is listed as “effective”. In addition, in the data set with Triton rat, the “Plasma TG at 90 min” value stood at 290.2 ± 89.7 mg/dL, the “Plasma TG at 120 min” value turned out to be 479.3 ± 123.4 mg/dL and the “Pre-Triton TG” value was found to be 35.6 ± 5.6 mg/dL. Also, the “Rate of absorption of triglycerides arising from a high fat meal” value in the data set with Triton rat (conclusion from Triton rat data) is reported as “suppresses”. The “Plasma TG appearance compared to vehicle and orlistat treatments” value in the data set with Triton rat (following Intralipid bolus, at 90 and 120 minutes post Triton WR-1339, P≦0.05) was “significantly decreased”. In the data set on FCS (Type I) patients (Type I (FCS) patients, n = 6, 20 mg per day oral for 21 days), the “Fasting TG, Mean Δ from Baseline” value is reported as −38.4%. Also, in the data set on FCS (Type I) patients (setting [2]), the “Postprandial Peak TG, Mean Δ from Baseline” value is listed as −36.4% and the “Postprandial TG AUC0-9, Mean Δ from Baseline” value is given as −35.4%. Besides, in the data set on FCS (Type I) patients (setting [3]), the “Postprandial Peak TG, Mean Baseline” value was found to be 1913.1 mg/dL and the “Postprandial TG AUC0-9, Mean Baseline” value was found to be 15044.5 mg·h/dL. Further, the “Fasting TG, Mean Baseline” value in the data set on FCS (Type I) patients (Type I (FCS) patients, n = 6, before treatment) is on record as 1968.0 mg/dL. The “Fasting triglycerides decreased by” value with FCS (Type I) patients (patients with FCS, 20 mg daily for 3 weeks) was 38.4%. The Postprandial triglycerides entry in the data set with FCS (Type I) patients (patients with FCS, 20 mg daily for 3 weeks, relative to fasting TG decrease) was “reduced by a similar magnitude”. The “Triglyceride levels decreased by” value with FCS (Type I) patients (patients with FCS, to near the threshold for increased pancreatitis risk (about 1000 mg/dL)) is reported as “about 40%”. Also, in the data set on Type V patients (20 mg daily for 3 weeks), the “Fasting triglycerides decreased by” value was 23.6% and the “Triglyceride levels relative to the threshold for increased pancreatitis risk (about 1000 mg/dL)” value was “kept well below the threshold”. The Postprandial triglycerides entry in the data set with Type V patients (20 mg daily for 3 weeks, relative to fasting TG decrease) is “reduced by a similar magnitude”. For the same compound, in the data set with Type V patients (n = 6, 20 mg per day oral for 21 days), the “Fasting TG, Mean Δ from Baseline” value is reported as −23.6%. For the same compound, in the data set on Type V patients (setting [4]), the “Postprandial Peak TG, Mean Δ from Baseline” value is on record as −25.8% and the “Postprandial TG AUC0-9, Mean Δ from Baseline” value was −27.3%. Besides, in the data set with Type V patients (n = 6, MTT before treatment), the “Postprandial Peak TG, Mean Baseline” value was determined as 835.2 mg/dL and the “Postprandial TG AUC0-9, Mean Baseline” value came out at 6873.0 mg·h/dL. Moreover, the “Fasting TG, Mean Baseline” value with Type V patients (n = 6, before treatment) was determined as 745.8 mg/dL. In addition, the Safety and tolerability entry in data set [1] (all 12 patients, 20 mg daily for 3 weeks) is “safe and well tolerated”. Also, the “Triglyceride levels after 3 weeks of treatment” value in data set [1] (both groups of patients (FCS and Type V), 20 mg daily) is “decreased”.
As to `CCCCCCCCCCC[C@@H](C[C@@H]1OC(=O)[C@H]1CCCCCC)OC(=O)[C@H](CC(C)C)NC=O` [Orlistat, reference compound], in the data set with STZ rats, the “Plasma TG at 2 hrs” value is 891.8 ± 97.8 mg/dL, the “Plasma TG at 4 hrs” value turned out to be 236.3 ± 37.9 mg/dL and the “Pre-dose TG” value worked out at 288.4 ± 27.4 mg/dL. Further, the “Plasma TGs at 4 hrs compared between groups” value in the data set on STZ rats (10 mpk oral) was “lower than the other 2 groups”. Also, in the data set on Triton rat, the “Plasma TG at 90 min” value was 747.3 ± 203.7 mg/dL, the “Plasma TG at 120 min” value is reported as 984.9 ± 251.7 mg/dL and the “Pre-Triton TG” value was found to be 114.5 ± 13.0 mg/dL.
